Consider six cell lines from the supplement of paper PMC10307832.

Holding throughout (assay): relative viability (nuclei count vs DMSO), 5 days (fraction); higher = more cells survive
Compound in assay [1]: Cc1ccc2nc(NCCN)c3ncc(C)n3c2c1 + CCNC(=O)c1noc(-c2cc(C(C)C)c(O)cc2O)c1-c1ccc(CN2CCOCC2)cc1 [Luminespib] (partner 0.01 µM)
The method in brief:
(§1)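 Lung cancer cell lines in 1536-well plates got either a single drug or a fixed anchor-drug dose together with five library-drug doses (not always all listed) in √10 steps, by pin tool, on the day after seeding. Nuclei were counted after 5 days, and relative viability is the treated-to-vehicle ratio of nuclei counts. Values are medians of duplicate plates.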

Compound in assay [2]: Cc1ccc2nc(NCCN)c3ncc(C)n3c2c1 + N=C(N)NC(=N)NCCc1ccccc1 [Phenformin] (partner 250 µM)
The method in brief:
as §1

Compound in assay [3]: Cc1ccc2nc(NCCN)c3ncc(C)n3c2c1 + Nc1ncn([C@H]2C[C@H](O)[C@@H](CO)O2)c(=O)n1 [Decitabine] (partner 2 µM)
The method in brief: as §1

Compound in the assay “Salubrinal + Linsitinib”: O=C(/C=C/c1ccccc1)NC(NC(=S)Nc1cccc2cccnc12)C(Cl)(Cl)Cl [Salubrinal] + C[C@]1(O)C[C@@H](c2nc(-c3ccc4ccc(-c5ccccc5)nc4c3)c3c(N)nccn32)C1 [Linsitinib] (partner 1 µM)
The method in brief: as §1

For the cell line NCI-H1944, the relative viability was 0.735 in assay [1] (first compound 0.04 µM); 0.735 in assay [1] (first compound 0.1265 µM); 0.663 in assay [1] (first compound 0.4 µM); 0.817 in assay [1] (first compound 1.265 µM); 0.844 in assay [1] (first compound 4 µM); 0.201 in assay [2] (first compound 0.04 µM). Also, the relative viability in assay [2] (first compound 0.1265 µM) was found to be 0.196; in assay [2] (first compound 0.4 µM) it was 0.201; in assay [2] (first compound 1.265 µM), 0.187; in assay [2] (first compound 4 µM), 0.195; in assay [3] (first compound 0.04 µM), 0.377; in assay [3] (first compound 0.1265 µM), 0.428. Moreover, the relative viability in assay [3] (first compound 0.4 µM) amounted to 0.436; in assay [3] (first compound 1.265 µM) it was 0.418; in assay [3] (first compound 4 µM) it was 0.422; with Salubrinal + Linsitinib (first compound 0.08 µM) it was 1.28; in the assay with Salubrinal + Linsitinib (first compound 0.253 µM), 1.23; with Salubrinal + Linsitinib (first compound 0.8 µM) it was 1.34. For the same cell line, the relative viability in the assay with Salubrinal + Linsitinib (first compound 2.53 µM) was determined as 1.17; with Salubrinal + Linsitinib (first compound 8 µM), 1.15.

Turning to NCI-H1975, the relative viability in assay [1] (first compound 0.04 µM) is 0.224; in assay [1] (first compound 0.1265 µM) it was 0.243; in assay [1] (first compound 0.4 µM), 0.326; in assay [1] (first compound 1.265 µM) it was 0.116; in assay [1] (first compound 4 µM), 0.153; in assay [2] (first compound 0.04 µM), 0.415. In addition, the relative viability in assay [2] (first compound 0.1265 µM) stood at 0.394; in assay [2] (first compound 0.4 µM) it was 0.432; in assay [2] (first compound 1.265 µM) it was 0.414; in assay [2] (first compound 4 µM), 0.355; in assay [3] (first compound 0.04 µM) it was 0.384; in assay [3] (first compound 0.1265 µM), 0.394. Also, the relative viability turned out to be 0.405 in assay [3] (first compound 0.4 µM); 0.455 in assay [3] (first compound 1.265 µM); 0.403 in assay [3] (first compound 4 µM); 1.1 in the assay with Salubrinal + Linsitinib (first compound 0.08 µM); 0.735 with Salubrinal + Linsitinib (first compound 0.253 µM); 1.17 with Salubrinal + Linsitinib (first compound 0.8 µM). Moreover, the relative viability with Salubrinal + Linsitinib (first compound 2.53 µM) was 0.988; with Salubrinal + Linsitinib (first compound 8 µM), 0.946.

As to NCI-H1993, the relative viability in assay [1] (first compound 0.04 µM) was found to be 1.01; in assay [1] (first compound 0.1265 µM), 0.944; in assay [1] (first compound 0.4 µM) it was 0.902; in assay [1] (first compound 1.265 µM), 0.887; in assay [1] (first compound 4 µM), 0.859; in assay [2] (first compound 0.04 µM), 0.506. In addition, the relative viability in assay [2] (first compound 0.1265 µM) came to 0.514; in assay [2] (first compound 0.4 µM), 0.591; in assay [2] (first compound 1.265 µM), 0.552; in assay [2] (first compound 4 µM), 0.495; in assay [3] (first compound 0.04 µM), 0.731; in assay [3] (first compound 0.1265 µM) it was 0.468. The relative viability was 0.632 in assay [3] (first compound 0.4 µM); 0.606 in assay [3] (first compound 1.265 µM); 0.583 in assay [3] (first compound 4 µM); 0.757 with Salubrinal + Linsitinib (first compound 0.08 µM); 0.722 in the assay with Salubrinal + Linsitinib (first compound 0.253 µM); 0.775 in the assay with Salubrinal + Linsitinib (first compound 0.8 µM). Further, the results for the relative viability with Salubrinal + Linsitinib (first compound 2.53 µM) and in the assay with Salubrinal + Linsitinib (first compound 8 µM) were 0.805 and 0.816, respectively.

In the case of NCI-H2009, the relative viability in assay [1] (first compound 0.04 µM) is 1.03; in assay [1] (first compound 0.1265 µM), 1; in assay [1] (first compound 0.4 µM) it was 1.05; in assay [1] (first compound 1.265 µM) it was 1.01; in assay [1] (first compound 4 µM) it was 0.792; in assay [2] (first compound 0.04 µM), 0.514. The relative viability turned out to be 0.399 in assay [2] (first compound 0.1265 µM); 0.489 in assay [2] (first compound 0.4 µM); 0.401 in assay [2] (first compound 1.265 µM); 0.393 in assay [2] (first compound 4 µM); 0.364 in assay [3] (first compound 0.04 µM); 0.394 in assay [3] (first compound 0.1265 µM). Further, the relative viability in assay [3] (first compound 0.4 µM) turned out to be 0.436; in assay [3] (first compound 1.265 µM), 0.395; in assay [3] (first compound 4 µM), 0.368; with Salubrinal + Linsitinib (first compound 0.08 µM), 1.16; in the assay with Salubrinal + Linsitinib (first compound 0.253 µM), 1.17; in the assay with Salubrinal + Linsitinib (first compound 0.8 µM), 1.28. Besides, the relative viability with Salubrinal + Linsitinib (first compound 2.53 µM) came out at 1.2; in the assay with Salubrinal + Linsitinib (first compound 8 µM), 1.14.

Consider NCI-H2023, for which the relative viability in assay [1] (first compound 0.04 µM) was determined as 0.782; in assay [1] (first compound 0.1265 µM) it was 0.68; in assay [1] (first compound 0.4 µM) it was 0.764; in assay [1] (first compound 1.265 µM), 0.782; in assay [1] (first compound 4 µM), 0.264; in assay [2] (first compound 0.04 µM), 0.466. The relative viability in assay [2] (first compound 0.1265 µM) was 0.409; in assay [2] (first compound 0.4 µM), 0.434; in assay [2] (first compound 1.265 µM), 0.437; in assay [2] (first compound 4 µM), 0.349; in assay [3] (first compound 0.04 µM), 0.225; in assay [3] (first compound 0.1265 µM) it was 0.227. In addition, the relative viability was found to be 0.241 in assay [3] (first compound 0.4 µM); 0.256 in assay [3] (first compound 1.265 µM); 0.2 in assay [3] (first compound 4 µM); 0.707 with Salubrinal + Linsitinib (first compound 0.08 µM); 0.573 in the assay with Salubrinal + Linsitinib (first compound 0.253 µM); 0.676 with Salubrinal + Linsitinib (first compound 0.8 µM). For the same cell line, the figures for the relative viability in the assay with Salubrinal + Linsitinib (first compound 2.53 µM) and with Salubrinal + Linsitinib (first compound 8 µM) were 0.777 and 0.706, respectively.

Take NCI-H2085: the relative viability in assay [1] (first compound 0.04 µM) was 0.492; in assay [1] (first compound 0.1265 µM), 0.463; in assay [1] (first compound 0.4 µM), 0.446; in assay [1] (first compound 1.265 µM) it was 0.442; in assay [1] (first compound 4 µM) it was 0.393; in assay [2] (first compound 0.04 µM) it was 0.817. In addition, the relative viability was 0.762 in assay [2] (first compound 0.1265 µM); 0.711 in assay [2] (first compound 0.4 µM); 0.722 in assay [2] (first compound 1.265 µM); 0.744 in assay [2] (first compound 4 µM); 0.56 in assay [3] (first compound 0.04 µM); 0.556 in assay [3] (first compound 0.1265 µM). Moreover, the relative viability worked out at 0.522 in assay [3] (first compound 0.4 µM); 0.534 in assay [3] (first compound 1.265 µM); 0.524 in assay [3] (first compound 4 µM); 1.03 in the assay with Salubrinal + Linsitinib (first compound 0.08 µM); 0.754 with Salubrinal + Linsitinib (first compound 0.253 µM); 0.896 in the assay with Salubrinal + Linsitinib (first compound 0.8 µM). Further, the relative viability with Salubrinal + Linsitinib (first compound 2.53 µM) came to 0.787; with Salubrinal + Linsitinib (first compound 8 µM) it was 0.868.
